The values below are quoted from earlier work in US12390417B2, “Praziquantel formulations” (Villya LLC, priority 2020, dated 2025).

In brackets after ≈: the same amount, converted by molar mass.

The conditions of this series: in water; according to the Merck Index.

With `O=C(C1CCCCC1)N1CC(=O)N2CCc3ccccc3C2C1` (racemic) [Praziquantel, (RS)-2-(Cyclohexylcarbonyl)-1,2,3,6,7,11b-hexahydro-4H-pyrazino[2,1-a]isoquinolin-4-one], the solubility (in general, how much of the substance goes into solution per volume) is 400 µg/mL (≈ 1280 µM).
